Article PMC7687369 (Antiviral Research, 2020)

Columns and labels:
SARS-CoV-2 [1] = format: cell-based; conditions: Vero E6-hTMPRSS2 cells
SARS-CoV-2 [2] = experiment: Viral replication assay in Vero E6-hTMPRSS2 cells; format: cell-based
SARS-CoV-2 [3] = format: cell-based
MERS-CoV = conditions: cited from earlier work
SARS-CoV = conditions: cited from earlier work

Compound: CNc1ccc2oc(C[C@H]3O[C@@]4(CC[C@H]3C)O[C@H]([C@H](C)C(=O)c3ccc[nH]3)[C@H](C)C[C@H]4C)nc2c1C(=O)O [Calcimycin]
- selectivity between viral-induced cytopathogenicity and inhibition of cell viability (SARS-CoV-2 [1]): 18 fold

Compound: CCN(CCO)CCCC(C)Nc1ccnc2cc(Cl)ccc12 (stereo not drawn) [Hydroxychloroquine]
- anti-viral activity in the cytopathogenic effect screen (in words) (SARS-CoV-2 [1]): negligible anti-viral activity
- inhibition of viral replication (in words) (SARS-CoV-2 [2]): did not efficiently inhibit viral replication
- antiviral activity, SARS-CoV-2 RNA (in words) (SARS-CoV-2 [3]): effective in wildtype Vero E6 cells at high micromolar concentrations

Compound: C[C@H](CCC(=O)O)C[C@H](C)C[C@H](C)C(=O)/C=C(\O)[C@H](C)C[C@H](C)C/C=C/[C@@H](C)[C@@H](O)[C@@H](C)[C@@H](O)C[C@@H]1CC[C@@](C)([C@H]2CC[C@@](C)([C@@H](C)O)O2)O1 [Ionomycin]
- selectivity between viral-induced cytopathogenicity and inhibition of cell viability (SARS-CoV-2 [1]): 5 fold

Compound: CO[C@@H]1[C@@H](OC)[C@H](C)[C@@](O)(CC(=O)O)O[C@H]1[C@H](C)[C@H]1O[C@@]2(CC[C@@](C)([C@H]3CC[C@@](C)([C@@H]4O[C@@H]([C@H]5O[C@](C)(O)[C@H](C)C[C@@H]5C)C[C@@H]4O[C@@H]4C[C@H](OC)[C@@H](OC)[C@H](C)O4)O3)O2)C[C@H](O)[C@H]1C [Maduramycin]
- selectivity between viral-induced cytopathogenicity and inhibition of cell viability (SARS-CoV-2 [1]): 313 fold

Compound: CC[C@@]1([C@@H]2O[C@@H]([C@H]3O[C@@](O)(CO)[C@H](C)C[C@@H]3C)C[C@@H]2C)CC[C@H]([C@]2(C)CC[C@]3(C[C@H](O)[C@@H](C)[C@@H]([C@@H](C)[C@@H](OC)[C@H](C)C(=O)O)O3)O2)O1 [Monensin]
- inhibition of the cytopathogenic effect of MERS-CoV (MERS-CoV): could inhibit the cytopathogenic effect of MERS-CoV
- inhibition of the cytopathogenic effect of SARS-CoV (SARS-CoV): but not SARS-CoV

Compound: CCC(CC)COC(=O)[C@H](C)N[P@](=O)(OC[C@H]1O[C@@](C#N)(c2ccc3c(N)ncnn23)[C@H](O)[C@@H]1O)Oc1ccccc1 [Remdesivir]
- selectivity between viral-induced cytopathogenicity and inhibition of cell viability (SARS-CoV-2 [1]): > 67 fold

Compound: CC[C@@H](C(=O)[C@@H](C)[C@@H](O)[C@H](C)[C@@H]1O[C@@H]([C@@H](CC)C(=O)O)CC[C@@H]1C)[C@H]1O[C@]2(C=C[C@@H](O)[C@]3(CC[C@@](C)([C@H]4CC[C@](O)(CC)[C@H](C)O4)O3)O2)[C@H](C)C[C@@H]1C [Salinomycin]
- inhibition of viral replication (in words) (SARS-CoV-2 [2]): potent inhibition
- inhibition of the cytopathogenic effect of MERS-CoV (MERS-CoV): could inhibit the cytopathogenic effect of MERS-CoV
- inhibition of the cytopathogenic effect of SARS-CoV (SARS-CoV): but not SARS-CoV
